Legend:
[1] = target: T1, Recombinant human Cat K (Homo sapiens, UniProt P43235); test: In vitro enzymatic assay of Cat K inhibition (Z-Phe-Arg-AMC fluorescence); type: biochemical; details: pH 6.0, substrate Z-Phe-Arg-AMC, read-out: Cat K IC50 (µM) ± SD
T1 sequence (P43235 115-329): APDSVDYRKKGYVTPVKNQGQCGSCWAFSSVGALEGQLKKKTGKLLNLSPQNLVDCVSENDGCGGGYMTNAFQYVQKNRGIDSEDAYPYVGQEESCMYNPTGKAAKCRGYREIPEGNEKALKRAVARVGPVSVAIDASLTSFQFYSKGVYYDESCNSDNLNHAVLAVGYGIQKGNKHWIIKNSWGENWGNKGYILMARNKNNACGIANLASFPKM
Protocol: Compounds were tested at eight concentrations (100–0.001 µM). Recombinant human Cat K (5.5 ng/mL) in reaction buffer (50 µL) containing sodium acetate (50 mM), EDTA (2.5 mM), and DTT (1 mM) was added to a 96-well plate containing the test compounds at pH 6.0. The plate was incubated at 37 °C for 15 min, and the fluorescence (F1) was measured at 355 nm excitation and 460 nm emission using a microplate reader (Wallac 1420 Victor2, Norwalk, CA, USA). Subsequently, Z-Phe-Arg-AMC (20 µL, 10 µM) was added, and the plate was incubated at 37 °C for 1 h. Fluorescence (F2) was measured again at 355 nm excitation and 460 nm emission. The inhibition rate was calculated using the formula: inhibition (%) = [control (F2 − F1) − sample (F2–F1)]/[control (F2 − F1) − blank (F2 − F1)] × 100%. IC50 values were calculated using the SPSS 17.0 software.

[2] = system: RANKL-induced RAW264.7 cells; test: In vitro anti-bone resorption assay: CTX-I released into culture medium (ELISA), cells on bovine femur slices; type: cell-based; details: compound 1 µM, 5 days; for CTX-I concentration compared to the model group (in words): vs untreated model group
From the text: (§1) Type I collagen, the predominant structural protein in bone, constitutes approximately 90% of the bone matrix protein [22]. During bone renewal, type I collagen is degraded, releasing short peptide fragments such as the C-terminal peptide of type I collagen (CTX-I) into the bloodstream. The concentration of CTX-I in the patient’s blood serves as a crucial biomarker for evaluating the degree of osteoporosis. In vitro, bone resorption can be assessed by measuring the concentration of CTX-I using a model in which osteoclasts are cultured on bone slices. In this experiment, the in vitro anti-bone resorption activities of the test compounds were evaluated in RANKL-induced RAW264.7 cells. This evaluation was based on the concentration of CTX-I released into the cell culture medium due to bone degradation, as well as the area of bone resorption pits formed on bone slices.
(§2) RAW264.7 cells, obtained from the cell bank of the Chinese Academy of Medical Sciences, were seeded into 96-well plates at a density of 1 × 10^5 cells per well with bovine femur slices. To induce cell differentiation, 50 ng mL^−1 of RANKL was added to the RAW264.7 cells. The cells were cultured for 5 days at 37 °C under 5% CO2 with the test compounds at a concentration of 1 µM. The culture supernatant was collected to measure the CTX-I concentration using ELISA. The bone slices were fixed with 2.5% glutaraldehyde for 7 min, then washed 3 times with 0.25 mol/L ammonium hydroxide, dehydrated using a series of ethanol solutions (40%, 75%, 80%, 95%, and anhydrous ethanol), and dried naturally. After staining with 1% toluidine blue solution at room temperature for 3–4 min, the bone slices were rinsed with distilled water and analyzed using an optical microscope. Bone resorption areas were calculated using image analysis software (iBright CL1500, Redmond, WA, USA).

[3] = system: RANKL-induced RAW264.7 cells; test: In vitro anti-bone resorption assay: area of bone resorption pits on bone slices (toluidine blue); type: cell-based; details: compound 1 µM, 5 days, compared with MIV-711 / model group
From the text: as §1, §2

Row | SMILES | melting point [°C] | IC50 [1] [µM] | CTX-I concentration compared to the model group (in words) [2] | Anti-bone resorption activity by area of bone resorption pits (in words) [3] | CTX-I concentration in the cell culture medium ([2]; ELISA) [nM]
1 | COc1ccc(S(=O)(=O)N2CCC[C@@H](C(=O)NCc3ccccc3C)C2)cc1 [Compound H-1, (R)-1-((4-methoxyphenyl)sulfonyl)-N-(2-methylbenzyl)piperidine-3-carboxamide] | 170.4 to 171.4 | 3.52 ± 0.44 | – | – | –
2 | COc1ccc(CNC(=O)[C@@H]2CCCN(S(=O)(=O)c3cccc(C)c3)C2)cc1 [Compound H-20, (R)-N-(4-methoxybenzyl)-1-(m-tolylsulfonyl)piperidine-3-carboxamide] | 152.6 to 154.2 | 3.82 ± 0.91 | – | – | –
3 | COc1ccc(S(=O)(=O)N2CCC[C@@H](C(=O)NCc3cccc(Cl)c3)C2)cc1 [Compound H-8, (R)-N-(3-chlorobenzyl)-1-((4-methoxyphenyl)sulfonyl)piperidine-3-carboxamide] | 146.1 to 148.7 | 0.45 ± 0.11 | reduced CTX-I concentration | – | –
4 | COc1ccc(CNC(=O)[C@@H]2CCCN(S(=O)(=O)c3cccc(Cl)c3)C2)cc1 [Compound H-17, (R)-1-((3-chlorophenyl)sulfonyl)-N-(4-methoxybenzyl)piperidine-3-carboxamide] | 117.1 to 119.9 | 0.47 ± 0.12 | reduced CTX-I concentration | comparable to that of MIV-711 | –
5 | COc1ccc(CNC(=O)[C@@H]2CCCN(S(=O)(=O)c3ccccc3C)C2)cc1 [Compound H-19, (R)-N-(4-methoxybenzyl)-1-(o-tolylsulfonyl)piperidine-3-carboxamide] | 108.3 to 109.4 | 5.33 ± 0.94 | – | – | –
6 | COc1ccc(S(=O)(=O)N2CCC[C@@H](C(=O)NCc3ccc(C)cc3)C2)cc1 [Compound H-3, (R)-1-((4-methoxyphenyl)sulfonyl)-N-(4-methylbenzyl)piperidine-3-carboxamide] | 182.3 to 182.7 | 4.39 ± 0.65 | – | – | –
7 | COc1ccc(S(=O)(=O)N2CCC[C@@H](C(=O)NCc3ccccc3OC)C2)cc1 [Compound H-4, (R)-N-(2-methoxybenzyl)-1-((4-methoxyphenyl)sulfonyl)piperidine-3-carboxamide] | 143.7 to 144.2 | 2.48 ± 0.37 | – | – | –
8 | COc1ccc(CNC(=O)[C@@H]2CCCN(S(=O)(=O)c3ccc(OC)cc3)C2)cc1 [Compound H-6, (R)-N-(4-methoxybenzyl)-1-((4-methoxyphenyl)sulfonyl)piperidine-3-carboxamide] | 139.4 to 140.9 | 3.64 ± 0.39 | – | – | –
9 | COc1ccc(CNC(=O)[C@@H]2CCCN(S(=O)(=O)c3ccccc3Cl)C2)cc1 [Compound H-16, (R)-1-((2-chlorophenyl)sulfonyl)-N-(4-methoxybenzyl)piperidine-3-carboxamide] | 162.3 to 164.5 | 2.03 ± 0.43 | reduced CTX-I concentration | – | –
10 | COc1ccc(S(=O)(=O)N2CCC[C@@H](C(=O)NCc3ccccc3Br)C2)cc1 [Compound H-10, (R)-N-(2-bromobenzyl)-1-((4-methoxyphenyl)sulfonyl)piperidine-3-carboxamide] | 153.7 to 154.5 | 2.18 ± 0.39 | – | – | –
11 | COc1ccc(S(=O)(=O)N2CCC[C@@H](C(=O)NCc3cccc(C)c3)C2)cc1 [Compound H-2, (R)-1-((4-methoxyphenyl)sulfonyl)-N-(3-methylbenzyl)piperidine-3-carboxamide] | 189.8 to 190.1 | 4.76 ± 0.71 | – | – | –
12 | COc1ccc(S(=O)(=O)N2CCC[C@@H](C(=O)NCc3cccc(Br)c3)C2)cc1 [Compound H-11, (R)-N-(3-bromobenzyl)-1-((4-methoxyphenyl)sulfonyl)piperidine-3-carboxamide] | 124.7 to 126.5 | 0.66 ± 0.2 | reduced CTX-I concentration | – | –
13 | COc1ccc(CNC(=O)[C@@H]2CCCN(S(=O)(=O)c3ccc(Br)cc3)C2)cc1 [Compound H-15, (R)-1-((4-bromophenyl)sulfonyl)-N-(4-methoxybenzyl)piperidine-3-carboxamide] | 152.4 to 154.4 | 0.85 ± 0.19 | – | – | –
14 | COc1ccc(CNC(=O)[C@@H]2CCCN(S(=O)(=O)c3cccc(Br)c3)C2)cc1 [Compound H-14, (R)-1-((3-bromophenyl)sulfonyl)-N-(4-methoxybenzyl)piperidine-3-carboxamide] | 203.5 to 204.2 | 0.91 ± 0.15 | – | – | –
15 | COc1ccc(S(=O)(=O)N2CCC[C@@H](C(=O)NCc3ccccc3Cl)C2)cc1 [Compound H-7, (R)-N-(2-chlorobenzyl)-1-((4-methoxyphenyl)sulfonyl)piperidine-3-carboxamide] | 192.3 to 193.6 | 1.06 ± 0.18 | – | – | –
16 | COc1ccc(S(=O)(=O)N2CCC[C@@H](C(C)=O)C2)cc1 [Compound F-12] | – | 13.5 ± 2.16 | – | – | –
17 | COc1ccc(S(=O)(=O)N2CCC[C@@H](C(=O)NCc3ccc(Br)cc3)C2)cc1 [Compound H-12, (R)-N-(4-bromobenzyl)-1-((4-methoxyphenyl)sulfonyl)piperidine-3-carboxamide] | 148.1 to 149.3 | 0.22 ± 0.05 | reduced CTX-I concentration | comparable to that of MIV-711 | –
18 | C#C[C@@H]1CN(C(=O)[C@H](CC(C)C)NC(=O)c2ccc(-c3nc(N4CCN(C)CC4)sc3F)cc2)[C@@H]2C(=O)CO[C@H]12 [MIV-711, reference compound] | – | 0.09 ± 0.02 | – | – | 21.73 ± 3.18
19 | COc1ccc(S(=O)(=O)N2CCC[C@@H](C(=O)NCc3cccc(OC)c3)C2)cc1 [Compound H-5, (R)-N-(3-methoxybenzyl)-1-((4-methoxyphenyl)sulfonyl)piperidine-3-carboxamide] | 130.2 to 131.2 | 2.93 ± 0.4 | – | – | –
20 | COc1ccc(CNC(=O)[C@@H]2CCCN(S(=O)(=O)c3ccc(Cl)cc3)C2)cc1 [Compound H-18, (R)-1-((4-chlorophenyl)sulfonyl)-N-(4-methoxybenzyl)piperidine-3-carboxamide] | 147 to 148.7 | 0.78 ± 0.3 | – | – | –
21 | COc1ccc(CNC(=O)[C@@H]2CCCN(S(=O)(=O)c3ccccc3Br)C2)cc1 [Compound H-13, (R)-1-((2-bromophenyl)sulfonyl)-N-(4-methoxybenzyl)piperidine-3-carboxamide] | 189.5 to 190.5 | 0.74 ± 0.12 | reduced CTX-I concentration | – | –
22 | COc1ccc(CNC(=O)[C@@H]2CCCN(S(=O)(=O)c3ccc(C)cc3)C2)cc1 [Compound H-21, (R)-N-(4-methoxybenzyl)-1-tosylpiperidine-3-carboxamide] | 162.9 to 163.7 | 3.65 ± 0.86 | – | – | –

Reference: publication PMC11396514, “Synthesis and Biological Evaluation of Novel Piperidine-3-Carboxamide Derivatives as Anti-Osteoporosis Agents Targeting Cathepsin K” (Molecules, 2024)
